Experimental findings from ChEMBL document CHEMBL4699448, “Garcinoic Acids and a Benzophenone Derivative from the Seeds of Garcinia kola and Their Antibacterial Activities against Oral Bacterial Pathogenic Organisms” (2020) are described below.

Values after ≈ are worked out from the molar mass of the structure shown.

What all share (type): functional
The subject of assay [1] is Porphyromonas gingivalis. The assay can be described thus: Bactericidal activity against Porphyromonas gingivalis ATCC 33277 assessed as reduction in bacterial growth incubated for 48 hrs by INT dye based broth dilution method. On the technique in general: Broth dilution looks for growth in wells or tubes with falling amounts of substance.
Assay [2] has as its system Streptococcus sobrinus. As to the kind of experiment: Antibacterial activity against Streptococcus sobrinus 6715 assessed as reduction in bacterial growth incubated for 24 hrs by INT dye based broth dilution method.
The subject of assay [3] is Streptococcus sobrinus. As to the kind of experiment: Bactericidal activity against Streptococcus sobrinus 6715 assessed as reduction in bacterial growth incubated for 48 hrs by INT dye based broth dilution method.
The subject of assay [4] is Porphyromonas gingivalis. As to the kind of experiment: Antibacterial activity against Porphyromonas gingivalis ATCC 33277 assessed as reduction in bacterial growth incubated for 24 hrs by INT dye based broth dilution method.

What is called MBC is the smallest concentration meeting the test's criterion for killing. The MIC is the smallest concentration in the dilution series that meets the test's criterion for growth inhibition. As to `O=C1c2c(O)cc(O)cc2O[C@H](c2ccc(O)cc2)[C@H]1c1c(O)cc(O)c2c1O[C@H](c1ccc(O)cc1)[C@@H](O)C2=O`, the minimal bactericidal concentration (MBC) is over 1000 µM in the assay on Porphyromonas gingivalis [1] and 1000 µM (≈ 558 µg/mL) in the assay on Streptococcus sobrinus [3]. Also, the values for the MIC with Streptococcus sobrinus [2] and in the assay on Porphyromonas gingivalis [4] were 250 µM (≈ 140 µg/mL) and over 1000 µM, respectively.

Take `CC(C)=CCC/C(C)=C/Cc1c(O)cc(C(=O)c2ccccc2)cc1O`: the figures for the MBC in the assay on Porphyromonas gingivalis [1] and with Streptococcus sobrinus [3] were over 1000 µM and 31.3 µM (≈ 11 µg/mL), respectively. Further, the minimal inhibitory concentration (MIC) turned out to be 15.6 µM (≈ 5.47 µg/mL) in the assay with Streptococcus sobrinus [2] and 62.5 µM (≈ 21.9 µg/mL) with Porphyromonas gingivalis [4].

Consider `COc1ccc([C@H]2Oc3c(c(O)cc(O)c3[C@H]3C(=O)c4c(O)cc(O)cc4O[C@@H]3c3ccc(O)cc3)C(=O)[C@@H]2O)cc1O`, for which the minimum bactericidal concentration (MBC) in the assay with Porphyromonas gingivalis [1] and in the assay with Streptococcus sobrinus [3] was over 1000 µM each time. Besides, the MIC in the assay on Streptococcus sobrinus [2] was 250 µM (≈ 147 µg/mL); in the assay on Porphyromonas gingivalis [4], over 1000 µM.

For `O=C1C[C@@H](c2ccc(O)cc2)Oc2c1c(O)cc(O)c2[C@H]1C(=O)c2c(O)cc(O)cc2O[C@@H]1c1ccc(O)cc1`, the MBC in the assay with Porphyromonas gingivalis [1] is over 1000 µM; with Streptococcus sobrinus [3], 500 µM (≈ 271 µg/mL). Besides, the MIC with Streptococcus sobrinus [2] and in the assay with Porphyromonas gingivalis [4] was 250 µM (≈ 136 µg/mL) in each case.

Turning to `C/C(=C\CC/C(C)=C/CC[C@]1(C)CCc2cc(O)cc(C)c2O1)CC/C=C(\C)C(=O)O`, the minimal bactericidal concentration (MBC) worked out at 250 µM (≈ 107 µg/mL) in the assay on Porphyromonas gingivalis [1] and 62.5 µM (≈ 26.7 µg/mL) in the assay with Streptococcus sobrinus [3]. Besides, the MIC with Streptococcus sobrinus [2] and in the assay with Porphyromonas gingivalis [4] was 31.3 µM (≈ 13.4 µg/mL) each time.

Take `CC1(C)CC[C@]2(C)CC[C@]3(C)[C@H]4CC=C5[C@@H](CC[C@H](O)C5(C)C)[C@]4(C)CC[C@@]3(C)[C@@H]2C1` [GLUTINOL]: the MBC with Porphyromonas gingivalis [1] and in the assay with Streptococcus sobrinus [3] was over 1000 µM throughout. Moreover, the MIC in the assay on Streptococcus sobrinus [2] and with Porphyromonas gingivalis [4] was over 1000 µM in each case.

`C/C(=C\CC/C(C)=C/CC[C@]1(C)CCc2cc(Oc3c(O)cc(C)c4c3CC[C@@](C)(CC/C=C(\C)CC/C=C(\C)CC/C=C(\C)C(=O)O)O4)cc(C)c2O1)CC/C=C(\C)C(=O)O`: the minimal bactericidal concentration (MBC) in the assay on Porphyromonas gingivalis [1] and with Streptococcus sobrinus [3] was over 1000 µM throughout. Moreover, the MIC in the assay with Streptococcus sobrinus [2] and with Porphyromonas gingivalis [4] was over 1000 µM each time.

As for `COc1ccc([C@@H]2CC(=O)c3c(O)cc(O)c([C@H]4C(=O)c5c(O)cc(O)cc5O[C@@H]4c4ccc(O)cc4)c3O2)cc1O`, the MBC in the assay on Porphyromonas gingivalis [1] and in the assay on Streptococcus sobrinus [3] was over 1000 µM each time. The minimal inhibitory concentration (MIC) was found to be 500 µM (≈ 286 µg/mL) with Streptococcus sobrinus [2] and 125 µM (≈ 71.6 µg/mL) with Porphyromonas gingivalis [4].

For `O=C1c2c(O)cc(O)cc2O[C@H](c2ccc(O)cc2)[C@H]1c1c(O)cc(O)c2c1O[C@H](c1ccc(O)c(O)c1)[C@@H](O)C2=O`, the MBC in the assay with Porphyromonas gingivalis [1] was over 1000 µM; in the assay with Streptococcus sobrinus [3], 1000 µM (≈ 574 µg/mL). Further, the MIC in the assay with Streptococcus sobrinus [2] is 250 µM (≈ 144 µg/mL); with Porphyromonas gingivalis [4], over 1000 µM.

On to `N=C(NCCCCCCNC(=N)NC(=N)Nc1ccc(Cl)cc1)NC(=N)Nc1ccc(Cl)cc1` [CHLORHEXIDINE], for which the MBC was 31.3 µM (≈ 15.8 µg/mL) in the assay on Porphyromonas gingivalis [1] and 2 µM (≈ 1.01 µg/mL) in the assay on Streptococcus sobrinus [3]. In addition, the results for the MIC in the assay with Streptococcus sobrinus [2] and with Porphyromonas gingivalis [4] were 2 µM (≈ 1.01 µg/mL) and 15.6 µM (≈ 7.89 µg/mL), respectively.

As to `C/C(=C\CC/C(C)=C/CC[C@]1(C)CCc2c(c(C)cc(O)c2-c2c(O)cc(C)c3c2CC[C@@](C)(CC/C=C(\C)CC/C=C(\C)CC/C=C(\C)C(=O)O)O3)O1)CC/C=C(\C)C(=O)O`, the MBC in the assay with Porphyromonas gingivalis [1] and in the assay on Streptococcus sobrinus [3] was over 1000 µM each time. The MIC with Streptococcus sobrinus [2] and in the assay with Porphyromonas gingivalis [4] was over 1000 µM in each case.

As for `C/C(=C\CC/C(C)=C/CC[C@]1(C)CCc2cc(Oc3c(O)c(C)c(C)c4c3CC[C@@](C)(CC/C=C(\C)CC/C=C(\C)CC/C=C(\C)C(=O)O)O4)cc(C)c2O1)CC/C=C(\C)C(=O)O`, the MBC with Porphyromonas gingivalis [1] and in the assay on Streptococcus sobrinus [3] was over 1000 µM each time. The MIC in the assay with Streptococcus sobrinus [2] and with Porphyromonas gingivalis [4] was over 1000 µM in each case.
